Laboratory results as given in patent publication US5342942A, “Pyrazoloquinazolone derivatives as neurotrophic agents” (Warner-Lambert Company, priority 1993, dated 1994).
Where a name gives a salt, the structure may show the parent alone.

These compounds were tested against T1, extracellular domain of the p75 receptor (Homo sapiens) (assay: inhibition of ^125 I-NGF binding to the extracellular domain of the p75 receptor (truncated form, residues 1-222, microtiter plate)). Settings: 2 nM ^125 I-NGF, 2 hours at room temperature; read-out: Concentration (IC50, nM): inhibition of ^125 I-NGF binding to the extracellular domain of the p75 receptor.
T1 construct: purchased Chiron Corporation, Emeryville, Calif; (originally); also commercially available from Austral Biologicals, Inc. (San Diego, Calif.)
Procedure: (§1) Assays of novel compounds are performed by measuring the compounds' ability to inhibit the binding of NGF to the NGF p75 receptor, using a truncated form (Residues 1-222, molecular weight=56 KDa) of the p75 receptor, originally obtained from Chiron Corporation, Emeryville, Calif., but also commercially available from Austral Biologicals, Inc. (San Diego, Calif.), on plastic 96-well microtiter plates (Immulon 11 Dynatech). The wells are coated with 50 μL/well of 20 μg/mL streptavidin in a […] (DPBS). The plates are then incubated at room temperature for 6 hours. The excess streptavidin is then poured out, the wells are washed with a 0.1% solution of bovine serum albumin (BSA) in DPBS. To each well is then added 50 μg/mL of a DPBS solution containing the truncated p75 receptor, which has previously been reacted with biotin by standard procedures. The plates are then incubated at room temperature for 2 hours and washed with 0.2% BSA/DPBS. To each well is added 98 μL of 2 nM ^125 I-NGF, followed by 2 μL/well of a concentration of test compound that is 50 times greater than the desired final test concentration. The plates are incubated for 2 hours at room temperature. The assay is read as the IC50, the concentration of compound that blocks 50% of the binding of ^125 I-NGF to the p75 receptor. […]

T1 sequence (P01138 122-241): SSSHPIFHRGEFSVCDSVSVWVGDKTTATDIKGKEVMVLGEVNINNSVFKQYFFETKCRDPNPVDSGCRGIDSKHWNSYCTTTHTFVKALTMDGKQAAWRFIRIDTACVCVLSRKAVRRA

SMILES	IC50
Cn1c2ccc(NC(=O)c3ccc(C(=O)O)cc3)cc2c(=O)n2nc(C(=O)O)cc12 [Example 3t]	166 nM
Cc1ccccc1C(=O)Nc1ccc2c(c1)c(=O)n1nc(C(=O)O)cc1n2C [Example 3r, 4,9-Dihydro-4-methyl-7-[(2-methylbenzoyl)amino]-9-oxopyrazolo[5,1-b]quinazoline-2-carboxylic acid]	> 10000 nM
Cn1c2ccc(NC(=O)c3ccc([N+](=O)[O-])cc3)cc2c(=O)n2nc(C(=O)O)cc12 [Example 3k, 4,9-Dihydro-4-methyl-7-[(4-nitrobenzoyl)amino]-9-oxopyrazolo[5,1-b]quinazoline-2-carboxylic acid]	229 nM
Cn1c2ccc(NC(=O)c3ccc(I)cc3)cc2c(=O)n2nc(C(=O)O)cc12 [Example 3j, 4,9-Dihydro-7-[(4-iodobenzoyl)amino]-4-methyl-9-oxopyrazolo[5,1-b]quinazoline-2-carboxylic acid]	472 nM
Cc1ccc2c(c1)c(=O)n1nc(C(=O)O)cc1n2C [Me Me H]	9700 nM
Cn1c2ccc(NC(=O)CCCC(=O)O)cc2c(=O)n2nc(C(=O)O)cc12 [Example 3x, 7-[(4-Carboxy-1-oxobutyl)amino]-4,9-dihydro-4-methyl-9-oxopyrazolo[5,1-b]quinazoline-2-carboxylic acid]	36 nM
Cn1c2ccc(NC(=O)c3ccc(C(F)(F)F)cc3)cc2c(=O)n2nc(C(=O)O)cc12 [Example 3n, 4,9-Dihydro-4-methyl-9-oxo-7-[[(4-trifluoromethyl)benzoyl]amino]pyrazolo [5,1-b]quinazoline-2-carboxylic acid]	2570 nM
Cn1c2ccc(NC(=O)c3ccc(C(C)(C)C)cc3)cc2c(=O)n2nc(C(=O)O)cc12 [Example 3l, 7-[(4-tert-Butylbenzoyl)amino]-4,9-dihydro-4-methyl-9-oxopyrazolo[5,1-b]quinazoline-2-carboxylic acid]	862 nM
CC(=O)Nc1ccc2c(c1)c(=O)n1nc(C(=O)O)cc1n2C [Me CH3 CONH H]	1700 nM
Cc1ccc(C(=O)Nc2ccc3c(c2)c(=O)n2nc(C(=O)O)cc2n3C)cc1 [Example 7, 4,9-Dihydro-4-methyl-9-oxo-7-[(methylbenzoyl)amino]-pyrazolo[5,1-b]quinazoline-2-carboxylic acid; triethanolamine salt (1:1)]	1160 nM
Cn1c2ccc(NC(=O)c3ccc(F)cc3)cc2c(=O)n2nc(C(=O)O)cc12 [Example 3s, 4,9-Dihydro-7-[(4-fluorobenzoyl)amino]-4-methyl-9-oxopyrazolo[5,1-b]quinazoline-2-carboxylic acid]	266 nM
Nc1ccc2[nH]c3cc(C(=O)O)nn3c(=O)c2c1 [H NH2 H]	338 nM
Cn1c2ccc(NC(=O)c3ccc(Cl)c(Cl)c3)cc2c(=O)n2nc(C(=O)O)cc12 [Example 3f, 7-[(3,4-Dichlorobenzoyl)amino]-4,9-dihydro-4-methyl-9-oxopyrazolo[5,1-b]quinazoline-2-carboxylic acid]	844 nM
Cn1c2ccc(NC(=O)CCc3ccccc3)cc2c(=O)n2nc(C(=O)O)cc12 [Example 3h, 4,9-Dihydro-4-methyl-9-oxo-7[(1-oxo-3-phenylpropyl) -amino]pyrazolo [5,1-b]quinazoline-2-carboxylic acid]	1710 nM
Cc1ccc2[nH]c3cc(C(=O)O)nn3c(=O)c2c1 [H Me H]	12900 nM
Cn1c2ccc(NC(=O)Cc3ccccc3)cc2c(=O)n2nc(C(=O)O)cc12 [Example 3e, 4,9-Dihydro-4-methyl-9-oxo-7-[(phenylacetyl)aminol]-pyrazolo[5,1-b]quinazoline-2-carboxylic acid]	568 nM

SMILES	IC50
Cn1c2ccc(N)cc2c(=O)n2nc(C(=O)O)cc12 [Example 1, 7-Amino-4,9-dihydro-4-methyl-9-oxopyrazolo[5,1-b]-quinazoline-2-carboxylic acid]	1900 nM
Cn1c2ccc(NC(=O)c3ccc4ccccc4c3)cc2c(=O)n2nc(C(=O)O)cc12 [Example 3i]	431 nM
Cn1c2ccc(NC(=O)c3ccccc3)cc2c(=O)n2nc(C(=O)O)cc12 [Example 3, 7-(Benzoylamino)-4,9-dihydro-4-methyl-9-oxopyrazolo-[5,1-b]quinazoline-2-carboxylic acid]	228 nM
Cc1ccc(C(=O)Nc2ccc3c(c2)c(=O)n2nc(C(=O)O)cc2n3C)cc1 [Example 3b, 4,9-Dihydro-4-methyl-9-oxo-7-[(4-methylbenzoyl)amino]-pyrazolo[5,1-b]quinazoline-2-carboxylic acid]	180 nM
Cn1c2ccc(NC(=O)CC(=O)O)cc2c(=O)n2nc(C(=O)O)cc12 [Example 3v, 7-[(Carboxyacetyl)amino]-4,9-dihydro-4-methyl-9-oxopyrazolo[5,1-b]quinazoline-2-carboxylic acid]	1150 nM
Cn1c2ccc(NC(=O)c3cccs3)cc2c(=O)n2nc(C(=O)O)cc12 [Example 3a, 4,9-Dihydro-4-methyl-9-oxo-7-[(2-thienylcarbonyl)amino]pyrazolo[5,1-b]quinazoline-2-carboxylic acid]	690 nM
Cc1ccc(C(=O)Nc2ccc3c(c2)c(=O)n2nc(C(=O)O)cc2n3C)cc1I [Example 3u, 4,9-Dihydro-7-[(3-iodo-4-methylbenzoyl)amino]-4-methyl-9-oxopyrazolo[5,1-b]quinazoline-2-carboxylic acid]	~200 nM
Cn1c2ccc(NC(=O)Nc3ccccc3)cc2c(=O)n2nc(C(=O)O)cc12 [Example 3g]	3880 nM
Cn1c2ccc(NC(=O)c3ccc(-c4ccccc4)cc3)cc2c(=O)n2nc(C(=O)O)cc12 [Example 3q, 7-[[(1,1'-Biphenyl)-4-ylcarbonyl]amino]-4,9-dihydro-4-methyl-9-oxopyrazolo[5,1-b]quinazoline-2-carboxylic acid]	222 nM
Cc1cccc(C(=O)Nc2ccc3c(c2)c(=O)n2nc(C(=O)O)cc2n3C)c1 [Example 3p, 4,9-Dihydro-4-methyl-7-[(3-methylbenzoyl)amino]-9-oxopyrazolo[5,1-b]quinazoline-2-carboxylic acid]	748 nM
Cn1c2ccccc2c(=O)n2nc(C(=O)O)cc12 [Me H H]	30800 nM
Cn1c2ccc(NC(=O)c3ccc(Cl)cc3)cc2c(=O)n2nc(C(=O)O)cc12 [Example 3d, 7-[(4-Chlorobenzoyl)amino]-4,9-dihydro-4-methyl-9-oxopyrazolo [5,1-b]quinazoline-2-carboxylic acid]	250 nM
O=C(O)c1ccc2c(=O)n3nc(C(=O)O)cc3[nH]c2c1 [H H CO2 H]	1100 nM
Cn1c2ccc(NC(=O)C34CC5CC(CC(C5)C3)C4)cc2c(=O)n2nc(C(=O)O)cc12 [Example 3m, 4,9-Dihydro-4-methyl-9-oxo-7-[(tricyclo[3.3.1.1^3,7]-dec-1-ylcarbonyl)amino]pyrazolo[5,1-b]quinazoline-2-carboxylic acid]	2230 nM
Cn1c2ccc(NC(=O)CCC(=O)O)cc2c(=O)n2nc(C(=O)O)cc12 [Example 3w, 7-[(3-Carboxy-1-oxopropyl)amino]-4,9-dihydro-4-methyl-9-oxopyrazolo[5,1-b]qruinazoline-2-carboxylic acid]	116 nM
COc1ccc(C(=O)Nc2ccc3c(c2)c(=O)n2nc(C(=O)O)cc2n3C)cc1 [Example 3c, 4,9-Dihydro-4-methyl-9-oxo-7-[(4-methoxybenzoyl)amino]-pyrazolo[5,1-b]quinazoline-2-carboxylic acid]	10000 nM

The compounds below were run against T2, extracellular domain of the p75 receptor (Homo sapiens, UniProt P01138) in the same assay as above. Settings: FIG. 1, result in words.
T2 construct: purchased Chiron Corporation, Emeryville, Calif; (originally); also commercially available from Austral Biologicals, Inc. (San Diego, Calif.)
Procedure: as §1

T2 sequence (P01138 122-241): as above

SMILES	prevention of binding of ^125 I-NGF to the extracellular domain of p75
Cn1c2ccc(NC(=O)c3ccccc3)cc2c(=O)n2nc(C(=O)O)cc12 [Example 3, 7-(Benzoylamino)-4,9-dihydro-4-methyl-9-oxopyrazolo-[5,1-b]quinazoline-2-carboxylic acid]	prevents the binding of ^125 I-NGF to the extracellular domain of p75

What follows are compounds tested on full length p75 receptor (assay: inhibition of ^125 I-NGF binding to full length p75 receptor expressed in CHO cells that lack trk (FIG. 2)). Settings: CHO cells that lack trk expression.
Description: (§2) In principle, a compound may inhibit the binding of NGF to the p75 receptor by interacting with either protein. The compounds of the present invention are studied further as exemplified here with the compound of Example 3.

SMILES	prevention of binding of ^125 I-NGF to full length p75 receptor
Cn1c2ccc(NC(=O)c3ccccc3)cc2c(=O)n2nc(C(=O)O)cc12 [Example 3, 7-(Benzoylamino)-4,9-dihydro-4-methyl-9-oxopyrazolo-[5,1-b]quinazoline-2-carboxylic acid]	completely prevents binding of ^125 I-NGF to full length p75 receptor

What follows are compounds tested on PC12 cells that express both p75 and trk (assay: inhibition of ^125 I-NGF binding in PC12 cells that express both p75 and trk (FIG. 3)). Settings: p75 about 80% and trk about 20% of total NGF receptors.
Description: as §2

SMILES	block of ^125 I-NGF binding in PC12 cells
Cn1c2ccc(NC(=O)c3ccccc3)cc2c(=O)n2nc(C(=O)O)cc12 [Example 3, 7-(Benzoylamino)-4,9-dihydro-4-methyl-9-oxopyrazolo-[5,1-b]quinazoline-2-carboxylic acid]	about 80%

Each compound was assayed on p75 (assay: inhibition of crosslinking of ^125 I-NGF to p75 (FIG. 4)). Settings: not given.
Assay type: binding
Description: as §2

SMILES	inhibition of crosslinking of ^125 I-NGF to p75
Cn1c2ccc(NC(=O)c3ccccc3)cc2c(=O)n2nc(C(=O)O)cc12 [Example 3, 7-(Benzoylamino)-4,9-dihydro-4-methyl-9-oxopyrazolo-[5,1-b]quinazoline-2-carboxylic acid]	can inhibit the crosslinking of ^125 I-NGF to p75

The compounds below were run on NGF receptors (assay: direct binding to NGF receptors with radioiodinated derivative of Compound 3 (FIG. 5)). Settings: utilizing a radioiodinated derivative of Compound 3 (corresponding to Example 3j).
Description: as §2

SMILES	direct binding to NGF receptors
Cn1c2ccc(NC(=O)c3ccccc3)cc2c(=O)n2nc(C(=O)O)cc12 [Example 3, 7-(Benzoylamino)-4,9-dihydro-4-methyl-9-oxopyrazolo-[5,1-b]quinazoline-2-carboxylic acid]	does not bind to NGF receptors directly

The compounds below were run on NGF (assay: interaction with NGF bound to a sepharose support (FIG. 6)). Settings: not given.
Assay type: binding
Description: as §2

SMILES	specific interaction with NGF
Cn1c2ccc(NC(=O)c3ccccc3)cc2c(=O)n2nc(C(=O)O)cc12 [Example 3, 7-(Benzoylamino)-4,9-dihydro-4-methyl-9-oxopyrazolo-[5,1-b]quinazoline-2-carboxylic acid]	specific interaction between Compound 3 and NGF
